Data: the supplement of paper PMC10307832

Experiments:
Assay in all cases: relative viability (nuclei count vs DMSO), 5 days (fraction); higher = more cells survive
Ispinesib + Palbociclib = compound: Cc1ccc(C(=O)N(CCCN)[C@@H](c2nc3cc(Cl)ccc3c(=O)n2Cc2ccccc2)C(C)C)cc1 [Ispinesib] + CC(=O)c1c(C)c2cnc(Nc3ccc(N4CCNCC4)cn3)nc2n(C2CCCC2)c1=O [Palbociclib] (partner 0.5 µM)
Method in brief: (§1)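 Lung cancer cell lines in 1536-well plates got either a single drug or a fixed anchor-drug dose together with five library-drug doses (not always all listed) in √10 steps, by pin tool, on the day after seeding. Nuclei were counted after 5 days, and relative viability is the treated-to-vehicle ratio of nuclei counts. Values are medians of duplicate plates.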

Ispinesib + Trametinib = compound: Cc1ccc(C(=O)N(CCCN)[C@@H](c2nc3cc(Cl)ccc3c(=O)n2Cc2ccccc2)C(C)C)cc1 [Ispinesib] + CC(=O)Nc1cccc(-n2c(=O)n(C3CC3)c(=O)c3c(Nc4ccc(I)cc4F)n(C)c(=O)c(C)c32)c1 [Trametinib] (partner 0.02 µM)
Method in brief: as §1

Linsitinib + Trametinib = compound: C[C@]1(O)C[C@@H](c2nc(-c3ccc4ccc(-c5ccccc5)nc4c3)c3c(N)nccn32)C1 [Linsitinib] + CC(=O)Nc1cccc(-n2c(=O)n(C3CC3)c(=O)c3c(Nc4ccc(I)cc4F)n(C)c(=O)c(C)c32)c1 [Trametinib] (partner 0.02 µM)
Method in brief: as §1

For UMC-11, which relative viability (Ispinesib + Palbociclib; first compound 0.001 µM) is on record?
The relative viability was 0.336.

And the relative viability (Ispinesib + Palbociclib; first compound 0.003162 µM)?
Its relative viability is 0.311.

What about the relative viability (Ispinesib + Palbociclib; first compound 0.01 µM) of the same cell line?
The relative viability was 0.309.

What about the relative viability (Ispinesib + Palbociclib; first compound 0.03162 µM) of the same cell line?
Its relative viability is 0.217.

And the relative viability (Ispinesib + Palbociclib; first compound 0.1 µM)?
The relative viability was 0.237.

And the relative viability (Ispinesib + Trametinib; first compound 0.001 µM)?
The relative viability was 0.685.

What about the relative viability (Ispinesib + Trametinib; first compound 0.003162 µM) of the same cell line?
Its relative viability is 0.701.

And the relative viability (Ispinesib + Trametinib; first compound 0.01 µM)?
Its relative viability is 0.495.

What about the relative viability (Ispinesib + Trametinib; first compound 0.03162 µM) of the same cell line?
Its relative viability is 0.238.

What about the relative viability (Ispinesib + Trametinib; first compound 0.1 µM) of the same cell line?
The relative viability was 0.309.

What about the relative viability (Linsitinib + Trametinib; first compound 0.01 µM) of the same cell line?
The relative viability was 0.72.

And the relative viability (Linsitinib + Trametinib; first compound 0.03162 µM)?
The relative viability was 0.76.

What about the relative viability (Linsitinib + Trametinib; first compound 0.1 µM) of the same cell line?
Its relative viability is 0.7.

And the relative viability (Linsitinib + Trametinib; first compound 0.3162 µM)?
Its relative viability is 0.211.

What about the relative viability (Linsitinib + Trametinib; first compound 1 µM) of the same cell line?
Its relative viability is 0.471.
